Measured values as given in ChEMBL document CHEMBL4837183, “Antiproliferative Bufadienolides from the Bulbs of Drimia altissima” (2021).

What was measured:
Format in all cases: functional
SNB-75 = test: Growth inhibition of human SNB-75 cells measured after 48 hrs by SRB assay
Malme-3M = test: Growth inhibition of human Malme-3M cells measured after 48 hrs by SRB assay
MCF7 = test: Growth inhibition of human MCF7 cells measured after 48 hrs by SRB assay
MOLT-4 = test: Growth inhibition of human MOLT-4 cells measured after 48 hrs by SRB assay
NCI-H460 = test: Growth inhibition of human NCI-H460 cells measured after 48 hrs by SRB assay
DU-145 = test: Growth inhibition of human DU-145 cells measured after 48 hrs by SRB assay
M14 = test: Growth inhibition of human M14 cells measured after 48 hrs by SRB assay
HCC 2998 = test: Growth inhibition of human HCC 2998 cells measured after 48 hrs by SRB assay
A549 = test: Growth inhibition of human A549 cells measured after 48 hrs by SRB assay
SF-268 = test: Growth inhibition of human SF-268 cells measured after 48 hrs by SRB assay
CAKI-1 = test: Growth inhibition of human CAKI-1 cells measured after 48 hrs by SRB assay
SNB-19 = test: Growth inhibition of human SNB-19 cells measured after 48 hrs by SRB assay
NCI-H322M = test: Growth inhibition of human NCI-H322M cells measured after 48 hrs by SRB assay
CCRF-CEM = test: Growth inhibition of human CCRF-CEM cells measured after 48 hrs by SRB assay
BT-549 = test: Growth inhibition of human BT-549 cells measured after 48 hrs by SRB assay
RXF 393 = test: Growth inhibition of human RXF 393 cells measured after 48 hrs by SRB assay
SK-MEL-28 = test: Growth inhibition of human SK-MEL-28 cells measured after 48 hrs by SRB assay
UACC-62 = test: Growth inhibition of human UACC-62 cells measured after 48 hrs by SRB assay
SN12C = test: Growth inhibition of human SN12C cells measured after 48 hrs by SRB assay
HCT-15 = test: Growth inhibition of human HCT-15 cells measured after 48 hrs by SRB assay
786-0 = test: Growth inhibition of human 786-0 cells measured after 48 hrs by SRB assay
MDA-MB-435 = test: Growth inhibition of human MDA-MB-435 cells measured after 48 hrs by SRB assay
SW-620 = test: Growth inhibition of human SW-620 cells measured after 48 hrs by SRB assay
OVCAR-8 = test: Growth inhibition of human OVCAR-8 cells measured after 48 hrs by SRB assay
SK-MEL-2 = test: Growth inhibition of human SK-MEL-2 cells measured after 48 hrs by SRB assay
IGROV-1 = test: Growth inhibition of human IGROV-1 cells measured after 48 hrs by SRB assay
A498 = test: Growth inhibition of human A498 cells measured after 48 hrs by SRB assay
SF-295 = test: Growth inhibition of human SF-295 cells measured after 48 hrs by SRB assay
NCI-H522 = test: Growth inhibition of human NCI-H522 cells measured after 48 hrs by SRB assay
UO-31 = test: Growth inhibition of human UO-31 cells measured after 48 hrs by SRB assay
HT-29 = test: Growth inhibition of human HT-29 cells measured after 48 hrs by SRB assay
HL-60 = test: Growth inhibition of human HL-60 cells measured after 48 hrs by SRB assay
OVCAR-5 = test: Growth inhibition of human OVCAR-5 cells measured after 48 hrs by SRB assay
LOX IMVI = test: Growth inhibition of human LOX IMVI cells measured after 48 hrs by SRB assay
SF-539 = test: Growth inhibition of human SF-539 cells measured after 48 hrs by SRB assay
SK-OV-3 = test: Growth inhibition of human SK-OV-3 cells measured after 48 hrs by SRB assay
NCI-H226 = test: Growth inhibition of human NCI-H226 cells measured after 48 hrs by SRB assay
ACHN = test: Growth inhibition of human ACHN cells measured after 48 hrs by SRB assay
KM12 = test: Growth inhibition of human KM12 cells measured after 48 hrs by SRB assay
TK-10 = test: Growth inhibition of human TK-10 cells measured after 48 hrs by SRB assay
PC-3 = test: Growth inhibition of human PC-3 cells measured after 48 hrs by SRB assay
Hs-578T = test: Growth inhibition of human Hs-578T cells measured after 48 hrs by SRB assay
NCI/ADR-RES = test: Growth inhibition of human NCI/ADR-RES cells measured after 48 hrs by SRB assay
SK-MEL-5 = test: Growth inhibition of human SK-MEL-5 cells measured after 48 hrs by SRB assay
U-251 = test: Growth inhibition of human U-251 cells measured after 48 hrs by SRB assay
T47D = test: Growth inhibition of human T47D cells measured after 48 hrs by SRB assay
MDA-MB-468 = test: Growth inhibition of human MDA-MB-468 cells measured after 48 hrs by SRB assay
MDA-MB-231 = test: Growth inhibition of human MDA-MB-231 cells measured after 48 hrs by SRB assay
K562 = test: Growth inhibition of human K562 cells measured after 48 hrs by SRB assay
HOP-92 = test: Growth inhibition of human HOP-92 cells measured after 48 hrs by SRB assay
HCT-116 = test: Growth inhibition of human HCT-116 cells measured after 48 hrs by SRB assay
HOP-62 = test: Growth inhibition of human HOP-62 cells measured after 48 hrs by SRB assay
NCI-H23 = test: Growth inhibition of human NCI-H23 cells measured after 48 hrs by SRB assay
COLO 205 = test: Growth inhibition of human COLO 205 cells measured after 48 hrs by SRB assay
SR = test: Growth inhibition of human SR cells measured after 48 hrs by SRB assay
UACC-257 = test: Growth inhibition of human UACC-257 cells measured after 48 hrs by SRB assay
OVCAR-3 = test: Growth inhibition of human OVCAR-3 cells measured after 48 hrs by SRB assay

CC(=O)OC[C@H]1O[C@@H](O[C@@H]2C=C3CC[C@@H]4[C@H](C(=O)C[C@]5(C)[C@@H](c6ccc(=O)oc6)CC[C@]45O)[C@@]3(C)CC2)[C@H](OC(C)=O)[C@@H](OC(C)=O)[C@@H]1OC(C)=O was tested, and the GI50 (SNB-75) was > 10000 nM, the GI50 (Malme-3M) was 9730 nM and the GI50 (MCF7) was 7710 nM. For the same compound, the GI50 (MOLT-4) was 5120 nM, the GI50 (NCI-H460) was 3530 nM and the GI50 (DU-145) was 6100 nM. The GI50 (M14) was > 10000 nM, the GI50 (HCC 2998) was > 10000 nM and the GI50 (A549) was 4780 nM. For the same compound, the GI50 (SF-268) was 5640 nM, the GI50 (CAKI-1) was 7280 nM and the GI50 (SNB-19) was > 10000 nM. The GI50 (NCI-H322M) was > 10000 nM, the GI50 (CCRF-CEM) was 6970 nM and the GI50 (BT-549) was 5010 nM. The GI50 (RXF 393) was 2310 nM, the GI50 (SK-MEL-28) was > 10000 nM and the GI50 (UACC-62) was > 10000 nM. The GI50 (SN12C) was 4850 nM, the GI50 (HCT-15) was > 10000 nM and the GI50 (786-0) was 7330 nM. For the same compound, the GI50 (MDA-MB-435) was > 10000 nM, the GI50 (SW-620) was 7060 nM and the GI50 (OVCAR-8) was > 10000 nM. The GI50 (SK-MEL-2) was > 10000 nM, the GI50 (IGROV-1) was > 10000 nM and the GI50 (A498) was 2890 nM. It also gave a GI50 (SF-295) of 7350 nM, a GI50 (NCI-H522) of 3960 nM and a GI50 (UO-31) of 6060 nM. For the same compound, the GI50 (HT-29) was > 10000 nM, the GI50 (HL-60) was 7370 nM and the GI50 (OVCAR-5) was > 10000 nM. The GI50 (LOX IMVI) was > 10000 nM, the GI50 (SF-539) was 6010 nM and the GI50 (SK-OV-3) was > 10000 nM. For the same compound, the GI50 (NCI-H226) was > 10000 nM, the GI50 (ACHN) was 2320 nM and the GI50 (KM12) was > 10000 nM. For the same compound, the GI50 (TK-10) was 6220 nM, the GI50 (PC-3) was > 10000 nM and the GI50 (Hs-578T) was 3790 nM. For the same compound, the GI50 (NCI/ADR-RES) was > 10000 nM, the GI50 (SK-MEL-5) was 5090 nM and the GI50 (U-251) was > 10000 nM. For the same compound, the GI50 (T47D) was > 10000 nM, the GI50 (MDA-MB-468) was > 10000 nM and the GI50 (MDA-MB-231) was > 10000 nM. The GI50 (K562) was > 10000 nM, the GI50 (HOP-92) was > 10000 nM and the GI50 (HCT-116) was 4440 nM. The GI50 (HOP-62) was 6880 nM, the GI50 (NCI-H23) was 8310 nM and the GI50 (COLO 205) was > 10000 nM. The GI50 (SR) was > 10000 nM, the GI50 (UACC-257) was > 10000 nM and the GI50 (OVCAR-3) was 4000 nM.

C[C@]12C[C@H](O)[C@H]3[C@@H](CCC4=C[C@@H](O[C@@H]5O[C@H](CO)[C@@H](O)[C@H](O)[C@H]5O)CC[C@@]43CO)[C@@]1(O)CC[C@@H]2c1ccc(=O)oc1 was tested, and the GI50 (SNB-75) was 23 nM, the GI50 (Malme-3M) was 17 nM and the GI50 (MCF7) was 9 nM. It also gave a GI50 (MOLT-4) of 7 nM, a GI50 (NCI-H460) of 6 nM and a GI50 (DU-145) of 6 nM. The GI50 (M14) was 31 nM, the GI50 (HCC 2998) was 52 nM and the GI50 (A549) was 4 nM. The GI50 (SF-268) was 7 nM, the GI50 (CAKI-1) was 8 nM and the GI50 (SNB-19) was 48 nM. The GI50 (NCI-H322M) was 7 nM, the GI50 (CCRF-CEM) was 7 nM and the GI50 (BT-549) was 4 nM. It also gave a GI50 (RXF 393) of 5 nM, a GI50 (SK-MEL-28) of 37 nM and a GI50 (UACC-62) of 25 nM. For the same compound, the GI50 (SN12C) was 6 nM, the GI50 (HCT-15) was 17 nM and the GI50 (786-0) was 7 nM. It also gave a GI50 (MDA-MB-435) of 33 nM, a GI50 (SW-620) of 17 nM and a GI50 (OVCAR-8) of 15 nM. The GI50 (SK-MEL-2) was 45 nM, the GI50 (IGROV-1) was 16 nM and the GI50 (A498) was 12 nM. For the same compound, the GI50 (SF-295) was 11 nM, the GI50 (NCI-H522) was 6 nM and the GI50 (UO-31) was 9 nM. It also gave a GI50 (HT-29) of 15 nM, a GI50 (HL-60) of 7 nM and a GI50 (OVCAR-5) of 17 nM. The GI50 (LOX IMVI) was 18 nM, the GI50 (SF-539) was 3 nM and the GI50 (SK-OV-3) was 51 nM. The GI50 (NCI-H226) was 22 nM, the GI50 (ACHN) was 5 nM and the GI50 (KM12) was 29 nM. The GI50 (TK-10) was 8 nM, the GI50 (PC-3) was 13 nM and the GI50 (Hs-578T) was 6 nM. The GI50 (NCI/ADR-RES) was 8 nM, the GI50 (SK-MEL-5) was 20 nM and the GI50 (U-251) was 25 nM. It also gave a GI50 (T47D) of 24 nM, a GI50 (MDA-MB-468) of 44 nM and a GI50 (MDA-MB-231) of 53 nM. The GI50 (K562) was 30 nM, the GI50 (HOP-92) was 22 nM and the GI50 (HCT-116) was 5 nM. For the same compound, the GI50 (HOP-62) was 6 nM, the GI50 (NCI-H23) was 8 nM and the GI50 (COLO 205) was 43 nM. It also gave a GI50 (SR) of 24 nM, a GI50 (UACC-257) of 42 nM and a GI50 (OVCAR-3) of 8 nM.
